Inhibition and IC50 data for one compound are collected here from patent US10544106B2, “Certain chemical entities, compositions, and methods” (NeuPharma, Inc., priority 2016, dated 2020).

pIC50: −log10 of the molar value. Where only a bound is given, the exact number is not on record here.

One test has as its target BTK (Homo sapiens (Human), UniProt Q06187). Description: Z'-LYTE kinase inhibition assay against BTK. It counts as biochemical. The procedure, abridged:
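Z′-LYTE FRET readout: 1.04-10.4 ng BTK with 2 μM Tyr 01 peptide, ATP at Km, in 50 mM HEPES pH 7.5, 10 mM MgCl2, 1 mM EGTA, 0.01% BRIJ-35, 1% DMSO. 60 min kinase reaction at room temperature, then 60 min development; IC50 from 10-point, 3-fold titrations.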

The target of the next test is EGFR (ErbB1) L858R (Homo sapiens (Human), UniProt P00533, L858R). Description: Z'-LYTE kinase inhibition assay against EGFR L858R. It counts as biochemical. Conditions: compound at 100 nM; ATP concentration at Km. The method, then: (§1) Inhibitory activities of compounds against BTK, EGFR T790M, EGFR L858R, and EGFR L858R/T790M were measured using Z′-LYTE® Method from Life Technologies as briefly described in the following.
(§2) Test Compounds are screened in 1% DMSO (final) in the well. For 10 point titrations, 3-fold serial dilutions are conducted from the starting concentration. All ATP Solutions are diluted to a 4× working concentration in Kinase Buffer (50 mM HEPES pH 7.5, 0.01% BRIJ-35, 10 mM MgCl2, 1 mM EGTA). Peptide/Kinase Mixtures are diluted to a 2× working concentration in the appropriate Kinase Buffers as described below. • (i) Peptide/Kinase Mixtures for measurement of EGFR (ErbB1) L858R: • The 2×EGFR (ErbB1) L858R/Tyr 04 mixture is prepared in 50 mM HEPES pH 7.5, 0.01% BRIJ-35, 10 mM MgCl2, 4 mM MnCl2. 1 mM EGTA, 2 mM DTT. The final 10 μL Kinase Reaction consists of 0.2-1.68 ng EGFR (ErbB1) L858R and 2 μM Tyr 04 in 50 mM HEPES pH 7.5, 0.01% BRIJ-35, 10 mM MgCl2, 2 mM MnCl2, 1 mM EGTA, 1 mM DTT. After the 1 hour Kinase Reaction incubation, 5 μL of a 1:64 dilution of Development Reagent B is added. • (ii) Peptide/Kinase Mixtures for measurement of EGFR (ErbB1) T790M: The 2×EGFR (ErbB1) T790M/Tyr 04 mixture is prepared in 50 mM HEPES pH 6.5, 0.01% BRIJ-35, 10 mM MgCl2, 1 mM EGTA, 0.02% NaN3. The final 10 μL Kinase Reaction consists of 3.9-30.2 ng EGFR (ErbB1) T790M and 2 μM Tyr 04 in 50 mM HEPES pH 7.0, 0.01% BRIJ-35, 10 mM MgCl2, 1 mM EGTA, 0.01% NaN3. After the 1 hour Kinase Reaction incubation, 5 μL of a 1:64 dilution of Development Reagent B is added. • (iii) Peptide/Kinase Mixtures for measurement of EGFR (ErbB1) L858R/T790M: The 2×EGFR (ErbB1) T790M L858R/Tyr 04 mixture is prepared in 50 mM HEPES pH 6.5, 0.01% BRIJ-35, 10 mM MgCl2, 1 mM EGTA, 0.02% NaN3. The final 10 μL Kinase Reaction consists of 0.38-4.22 ng EGFR (ErbB1) T790M L858R and 2 μM Tyr 04 in 50 mM HEPES pH 7.0, 0.01% BRIJ-35, 10 mM MgCl2, 1 mM EGTA, 0.01% NaN3. After the 1 hour Kinase Reaction incubation, 5 μL of a 1:64 dilution of Development Reagent B is added. • (iv) Peptide/Kinase Mixtures for measurement of BTK: The 2×BTK/Tyr 01 mixture is prepared in 50 mM HEPES pH 7.5, 0.010/BRIJ-35, 10 mM MgCl2, 1 mM EGTA. The final 10 μL Kinase Reaction consists of 1.04-10.4 ng BTK and 2 μM Tyr 01 in 50 mM HEPES pH 7.5, 0.01% BRIJ-35, 10 mM MgCl2, 1 mM EGTA. After the 1 hour Kinase Reaction incubation, 5 μL of a 1:256 dilution of Development Reagent B is added.
(§3) Reaction starts by 30-second shaking of mixture consisting of 2.5 μL 4× test compound, 5 μL 2× kinase reaction mixture and 2.5 μL 4×ATP Solution on Bar-coded Corning, low volume NBS, black 384-well plate (Corning Cat. #3676). Then the mixture is incubated for 60-minute at room temperature for the kinase reaction, followed by addition of 5 μL of a 1:1024 dilution of development reagent A and 30-second plate shake. The mixture is then incubated for another 60-minute at room temperature for development reaction. Finally fluorescence is read by plate reader.
(§4) The Z′-LYTE assay was carried out with ATP concentration at Km. The scale utilized in Tables 2-6 is as follows: ++ more than 50% inhibition and + less than 50% inhibition.

The next test addresses EGFR (ErbB1) T790M (Homo sapiens (Human), UniProt P00533, T790M). Description: Z'-LYTE kinase inhibition assay against EGFR T790M. It counts as biochemical. Conditions: compound at 100 nM; ATP concentration at Km. The method, then:
as §1, §2, §3, §4

The target of another test is EGFR (ErbB1) L858R/T790M (Homo sapiens (Human), UniProt P00533, L858R/T790M). Description: Z'-LYTE kinase inhibition assay against EGFR L858R/T790M. It counts as biochemical. As to conditions: compound at 100 nM; ATP concentration at Km. Here is the method:
as §1, §2, §3, §4

The target in a further test is EGFR del746_750 (Homo sapiens (Human), UniProt P00533, DEL746-750). Description: SelectScreen Lantha method (Eu-anti-GST antibody/tracer) for EGFR del746_750. It counts as binding. As to conditions: compound at 100 nM; read-out: % Inhibition against EGFR del745_750. Here is the method:
SelecteScreen's Lantha® method from Life Technologies was used to measure compound's activities in inhibition of EGFR del746_750.
Test Compounds are screened in 1% DMSO (final) in the well. For 10 point titrations, 3-fold serial dilutions are conducted from the starting concentration. • Components for EGFR del745_750: • Kinase Buffer A: 50 mM HEPES pH 7.5, 0.01% BRIJ-35, 10 mM MgCl2, 1 mM EGTA • Kinase/Antibody Mixtures for EGFR del745_ 750: EGFR del745_ 750 10 nM, Antibody: Eu-anti-GST 2 nM, Tracer 199 10 nM, Inhibitor: SB202190 88.2 nM, All Kinase/Antibody Mixtures are diluted to a 2× working concentration in the appropriate Kinase Buffer • Tracer: The 4× AlexaFluor® labeled Tracer is prepared in Kinase Buffer.
To start the measurement, the following components are added to individual wells of bar-coded, low volume, white 384-well plate (Greiner Cat. #784207): • 1. 160 nL—100× Test Compound in 100% DMSO. • 2. 3.84 μL—Kinase Buffer: • 3. 8.0 μL—2× Kinase/Antibody Mixture • 4. 4.0 μL—4× Tracer The mixture above is then shaken for 30-second following by 60-minute incubation at room temperature. Finally the plate is read on fluorescence plate reader.
as §4

For a further test, the system named is OCI-Ly10 cells. As to the kind of experiment: OCI-Ly10 cell proliferation assay (Alamar Blue, 72 hours). It counts as cell-based. Conditions: Homo sapiens. (Alamar Blue is a resazurin reagent that responds to reducing activity.)

Chain of BTK (Q06187 whole entry): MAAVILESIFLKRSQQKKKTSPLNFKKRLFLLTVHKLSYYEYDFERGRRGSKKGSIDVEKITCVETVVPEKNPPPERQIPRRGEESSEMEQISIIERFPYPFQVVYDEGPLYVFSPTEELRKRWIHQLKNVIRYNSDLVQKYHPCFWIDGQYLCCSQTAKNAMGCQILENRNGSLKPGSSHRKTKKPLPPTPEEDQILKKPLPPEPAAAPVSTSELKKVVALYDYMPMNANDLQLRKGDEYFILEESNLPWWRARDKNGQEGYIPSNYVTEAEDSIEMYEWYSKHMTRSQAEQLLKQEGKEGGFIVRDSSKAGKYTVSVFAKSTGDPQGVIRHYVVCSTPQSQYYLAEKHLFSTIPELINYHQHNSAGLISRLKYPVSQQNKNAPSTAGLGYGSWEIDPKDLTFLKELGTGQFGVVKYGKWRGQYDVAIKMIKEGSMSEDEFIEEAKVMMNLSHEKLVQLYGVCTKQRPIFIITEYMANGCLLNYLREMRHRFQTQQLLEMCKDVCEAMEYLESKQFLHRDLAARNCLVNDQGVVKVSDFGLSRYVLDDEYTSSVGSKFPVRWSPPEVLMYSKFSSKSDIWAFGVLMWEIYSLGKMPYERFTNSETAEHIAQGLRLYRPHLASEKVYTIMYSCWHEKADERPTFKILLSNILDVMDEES
Chain of EGFR (ErbB1) T790M (P00533 25-1210 T790M): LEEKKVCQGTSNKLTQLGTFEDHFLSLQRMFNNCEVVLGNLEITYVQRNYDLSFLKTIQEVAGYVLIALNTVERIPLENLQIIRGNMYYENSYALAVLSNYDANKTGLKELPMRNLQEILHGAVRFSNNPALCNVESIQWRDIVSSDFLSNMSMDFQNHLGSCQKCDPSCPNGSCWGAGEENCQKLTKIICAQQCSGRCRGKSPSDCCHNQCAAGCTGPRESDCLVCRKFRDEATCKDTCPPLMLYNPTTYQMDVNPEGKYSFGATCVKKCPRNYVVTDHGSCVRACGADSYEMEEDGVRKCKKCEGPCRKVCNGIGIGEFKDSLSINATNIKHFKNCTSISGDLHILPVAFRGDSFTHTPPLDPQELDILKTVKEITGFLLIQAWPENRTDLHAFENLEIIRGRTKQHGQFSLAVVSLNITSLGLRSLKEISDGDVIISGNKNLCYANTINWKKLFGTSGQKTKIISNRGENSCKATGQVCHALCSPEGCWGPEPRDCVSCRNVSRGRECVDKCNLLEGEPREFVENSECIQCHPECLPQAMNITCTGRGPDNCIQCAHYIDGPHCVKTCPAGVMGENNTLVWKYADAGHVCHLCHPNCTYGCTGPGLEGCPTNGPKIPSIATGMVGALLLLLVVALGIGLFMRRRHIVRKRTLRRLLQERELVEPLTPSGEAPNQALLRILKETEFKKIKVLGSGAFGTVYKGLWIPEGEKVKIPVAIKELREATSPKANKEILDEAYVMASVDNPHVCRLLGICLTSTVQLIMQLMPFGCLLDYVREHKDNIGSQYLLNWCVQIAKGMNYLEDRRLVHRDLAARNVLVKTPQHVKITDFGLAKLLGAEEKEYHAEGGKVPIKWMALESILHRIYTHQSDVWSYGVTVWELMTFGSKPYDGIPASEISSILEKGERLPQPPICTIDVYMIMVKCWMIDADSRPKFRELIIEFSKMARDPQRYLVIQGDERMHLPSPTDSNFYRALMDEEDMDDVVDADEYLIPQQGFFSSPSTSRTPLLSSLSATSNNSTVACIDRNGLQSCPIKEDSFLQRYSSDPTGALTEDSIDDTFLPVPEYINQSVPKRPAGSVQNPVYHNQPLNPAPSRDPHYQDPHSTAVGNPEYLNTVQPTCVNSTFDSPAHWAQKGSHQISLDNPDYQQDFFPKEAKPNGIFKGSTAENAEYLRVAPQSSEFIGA
Chain of EGFR del746_750 (P00533 other isoform, or with tags, fused parts or gaps del E746-A750): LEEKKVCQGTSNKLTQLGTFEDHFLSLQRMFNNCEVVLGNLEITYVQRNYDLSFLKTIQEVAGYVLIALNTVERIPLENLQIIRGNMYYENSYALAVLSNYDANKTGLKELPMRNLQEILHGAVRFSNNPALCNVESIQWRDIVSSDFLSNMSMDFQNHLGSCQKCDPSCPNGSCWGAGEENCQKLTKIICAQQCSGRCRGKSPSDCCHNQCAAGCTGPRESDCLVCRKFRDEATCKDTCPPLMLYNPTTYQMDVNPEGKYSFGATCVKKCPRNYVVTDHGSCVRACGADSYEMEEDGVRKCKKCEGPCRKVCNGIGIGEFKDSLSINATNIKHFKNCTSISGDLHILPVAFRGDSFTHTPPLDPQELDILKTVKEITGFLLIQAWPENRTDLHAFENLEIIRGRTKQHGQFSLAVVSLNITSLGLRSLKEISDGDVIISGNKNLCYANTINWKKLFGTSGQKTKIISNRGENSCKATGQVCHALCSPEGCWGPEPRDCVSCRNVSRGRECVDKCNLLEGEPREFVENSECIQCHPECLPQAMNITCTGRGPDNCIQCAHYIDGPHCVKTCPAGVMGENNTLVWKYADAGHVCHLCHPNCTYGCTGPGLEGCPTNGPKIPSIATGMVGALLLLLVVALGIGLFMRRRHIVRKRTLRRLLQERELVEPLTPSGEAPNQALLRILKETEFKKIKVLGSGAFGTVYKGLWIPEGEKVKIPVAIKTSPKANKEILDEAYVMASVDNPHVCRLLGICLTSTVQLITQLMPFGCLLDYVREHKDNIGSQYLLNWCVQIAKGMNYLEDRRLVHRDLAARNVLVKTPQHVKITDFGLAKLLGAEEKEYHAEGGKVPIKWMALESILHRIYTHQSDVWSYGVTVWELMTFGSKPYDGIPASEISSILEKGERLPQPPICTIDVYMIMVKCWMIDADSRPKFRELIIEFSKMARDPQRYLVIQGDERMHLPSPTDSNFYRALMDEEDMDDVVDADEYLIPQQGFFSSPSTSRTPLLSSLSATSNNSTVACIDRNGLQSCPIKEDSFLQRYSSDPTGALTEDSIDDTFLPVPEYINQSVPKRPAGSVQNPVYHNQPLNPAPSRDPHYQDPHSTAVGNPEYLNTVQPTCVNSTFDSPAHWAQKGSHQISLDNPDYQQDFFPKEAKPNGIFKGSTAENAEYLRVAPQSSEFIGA
Chain of EGFR (ErbB1) L858R (P00533 25-1210 L858R): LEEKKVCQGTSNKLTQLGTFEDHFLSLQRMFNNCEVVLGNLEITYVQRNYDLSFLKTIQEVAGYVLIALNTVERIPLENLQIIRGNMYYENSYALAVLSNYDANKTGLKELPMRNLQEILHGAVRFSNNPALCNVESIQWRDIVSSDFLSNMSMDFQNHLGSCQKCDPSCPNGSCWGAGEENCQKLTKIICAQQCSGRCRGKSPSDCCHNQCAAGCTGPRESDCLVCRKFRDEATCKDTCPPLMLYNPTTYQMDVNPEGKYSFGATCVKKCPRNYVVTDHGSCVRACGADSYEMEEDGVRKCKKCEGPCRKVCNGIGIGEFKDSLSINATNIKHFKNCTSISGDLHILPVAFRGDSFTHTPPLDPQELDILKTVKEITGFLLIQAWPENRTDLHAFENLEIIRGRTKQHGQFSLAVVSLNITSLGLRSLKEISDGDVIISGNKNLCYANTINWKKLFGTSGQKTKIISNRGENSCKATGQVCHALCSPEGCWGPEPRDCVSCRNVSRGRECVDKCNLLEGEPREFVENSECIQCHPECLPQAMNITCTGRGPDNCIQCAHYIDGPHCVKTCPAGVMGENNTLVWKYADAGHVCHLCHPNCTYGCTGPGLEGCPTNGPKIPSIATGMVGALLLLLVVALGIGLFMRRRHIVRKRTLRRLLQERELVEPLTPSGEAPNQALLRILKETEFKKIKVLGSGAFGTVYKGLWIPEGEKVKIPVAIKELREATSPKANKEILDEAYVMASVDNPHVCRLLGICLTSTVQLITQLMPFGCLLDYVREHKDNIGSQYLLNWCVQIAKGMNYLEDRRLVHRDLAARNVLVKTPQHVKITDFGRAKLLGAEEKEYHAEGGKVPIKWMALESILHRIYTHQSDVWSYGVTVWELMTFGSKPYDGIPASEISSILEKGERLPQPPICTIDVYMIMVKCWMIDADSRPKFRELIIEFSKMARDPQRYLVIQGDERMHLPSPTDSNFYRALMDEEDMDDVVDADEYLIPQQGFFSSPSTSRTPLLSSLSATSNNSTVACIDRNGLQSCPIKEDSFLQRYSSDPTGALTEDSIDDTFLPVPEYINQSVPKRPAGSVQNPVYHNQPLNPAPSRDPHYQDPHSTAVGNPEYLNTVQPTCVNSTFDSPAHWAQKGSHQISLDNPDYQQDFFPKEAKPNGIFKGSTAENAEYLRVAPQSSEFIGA

The inhibition is how much of the control response was suppressed. The pIC50 is −log10 of the IC50, conventionally taken in molar units. A lower pIC50 goes with a large IC50. Consider `C=CC(=O)Nc1cccc(-c2cc(-c3ccc(C(=O)Nc4ccccn4)cc3Cl)cc3cncnc23)c1` [C052, 4-(8-(3-acrylamidophenyl)quinazolin-6-yl)-3-chloro-N-(pyridin-2-yl)benzamide], for which the inhibition at 0.1 µM on BTK (compound at 100 nM, ATP concentration at Km) is greater than 50%; against EGFR (ErbB1) L858R, less than 50%; against EGFR (ErbB1) T790M, less than 50%; at EGFR (ErbB1) L858R/T790M it was less than 50%; at EGFR del746_750 it was less than 50%. For the same compound, the pIC50 was greater than 7.00 against BTK (series of concentrations, GraphPad Prism 5) and greater than 7.30 in the test with OCI-Ly10 cells.
